Experimental data as given in ChEMBL document CHEMBL5046301, “pH-Responsive Antimicrobial Peptide with Selective Killing Activity for Bacterial Abscess Therapy” (J Med Chem, 2022).
The source made the active and inactive calls. The calls are words filed in the database; no cut-off is given here.

Key:
Pseudomonas aeruginosa [1] = assay: Antimicrobial activity against Pseudomonas aeruginosa ATCC 27853 assessed as reduction in bacterial growth at pH 7.4 in presence of NaCl; type: functional, organism-based
Pseudomonas aeruginosa [2] = assay: Antimicrobial activity against Pseudomonas aeruginosa ATCC 27853 assessed as reduction in bacterial growth at pH 7.4 in presence of 50% serum; type: functional, organism-based
[3] = Cytotoxicity against mouse RAW264.7 cells assessed as inhibition of cell growth at pH 6.5 measured after 24 hrs by MTT assay; type: toxicity, cell-based
[4] = Hemolytic activity in human RBC assessed as hemoglobin release at pH 7.4 incubated for 1 hr; type: toxicity, cell-based; settings: erythrocyte, pH 7.4, 1 h
Pseudomonas aeruginosa [5] = assay: Antimicrobial activity against Pseudomonas aeruginosa ATCC 27853 assessed as reduction in bacterial growth at pH 6.5 in presence of 50% serum; type: functional, organism-based
[6] = Cytotoxicity against mouse RAW264.7 cells assessed as inhibition of cell growth at pH 7.4 measured after 24 hrs by MTT assay; type: toxicity, cell-based
Pseudomonas aeruginosa [7] = assay: Antimicrobial activity against Pseudomonas aeruginosa ATCC 27853 assessed as reduction in bacterial growth at pH 6.5 in presence of NaCl; type: functional
Pseudomonas aeruginosa [8] = assay: Antimicrobial activity against Pseudomonas aeruginosa ATCC 27853 assessed as reduction in bacterial growth at pH 7.4 in presence of CaCl2; type: functional, organism-based
[9] = Ratio of MHC for hemolytic activity against human RBC assessed as hemoglobin release at pH 6.5 to MHC for hemolytic activity against human RBC assessed as hemoglobin release at pH 7.4; type: toxicity, cell-based, Erythrocyte; settings: human red blood cells (RBC)
[10] = Hemolytic activity against human RBC assessed as hemoglobin release at pH 6.5 incubated for 1 hrs; type: toxicity, cell-based; settings: erythrocyte, pH 6.5, 1 h
Salmonella typhimurium [11] = assay: Antibacterial activity against Salmonella typhimurium ATCC 14028 assessed as inhibition of bacterial growth at pH 6.5 incubated for 24 hrs by NCCLS protocol based method; type: functional, Salmonella enterica subsp. enterica serovar Typhimurium; settings: Salmonella enterica
Staphylococcus aureus [12] = assay: Antibacterial activity against Staphylococcus aureus ATCC 29213 assessed as inhibition of bacterial growth at pH 6.5 incubated for 24 hrs by NCCLS protocol based method; type: functional
Staphylococcus aureus [13] = assay: Antibacterial activity against Staphylococcus aureus ATCC 25923 assessed as inhibition of bacterial growth at pH 6.5 incubated for 24 hrs by NCCLS protocol based method; type: functional
Salmonella typhimurium [14] = assay: Antibacterial activity against Salmonella enterica subsp. enterica serovar Typhimurium C77-31 assessed as inhibition of bacterial growth at pH 7.4 incubated for 24 hrs by NCCLS protocol based method; type: functional
[15] = tested on: Staphylococcus epidermidis; assay: Antibacterial activity against Staphylococcus epidermidis ATCC 12228 assessed as inhibition of bacterial growth at pH 6.5 incubated for 24 hrs by NCCLS protocol based method; type: functional
Staphylococcus aureus [16] = assay: Antibacterial activity against methicillin-resistant Staphylococcus aureus ATCC 43300 assessed as inhibition of bacterial growth at pH 7.4 incubated for 24 hrs by NCCLS protocol based method; type: functional
Salmonella typhimurium [17] = assay: Antibacterial activity against Salmonella enterica subsp. enterica serovar Typhimurium C77-31 assessed as inhibition of bacterial growth at pH 6.5 incubated for 24 hrs by NCCLS protocol based method; type: functional
Escherichia coli [18] = assay: Antibacterial activity against Escherichia coli ATCC 25922 assessed as inhibition of bacterial growth at pH 7.4 incubated for 24 hrs by NCCLS protocol based method; type: functional
Staphylococcus aureus [19] = assay: Antibacterial activity against Staphylococcus aureus ATCC 25923 assessed as inhibition of bacterial growth at pH 7.4 incubated for 24 hrs by NCCLS protocol based method; type: functional
Cell membrane [20] = assay: Induction of outer membrane permeabilization in Pseudomonas aeruginosa ATCC 27853 assessed as pH responsive ability by measuring fold increase in NPN uptake at 64 uM by NPN-dye based fluorescence analysis relative to control; type: subcellular
Cell membrane [21] = assay: Induction of cytoplasmic membrane depolarization in Pseudomonas aeruginosa ATCC 27853 assessed as increase in fluorescence intensity at acidic and alkaline pH by DiSC3-5 dye based fluorescence assay; type: subcellular; settings: TDE = time-dependent effect
Salmonella typhimurium [22] = assay: Antibacterial activity against Salmonella typhimurium ATCC 14028 assessed as inhibition of bacterial growth at pH 7.4 incubated for 24 hrs by NCCLS protocol based method; type: functional, Salmonella enterica subsp. enterica serovar Typhimurium; settings: Salmonella enterica
Cell membrane [23] = assay: Induction of outer membrane permeabilization in Pseudomonas aeruginosa ATCC 27853 assessed as increase in NPN uptake by NPN-dye based fluorescence analysis; type: subcellular; settings: dose 1-64 µM
Staphylococcus aureus [24] = assay: Antibacterial activity against methicillin-resistant Staphylococcus aureus ATCC 43300 assessed as inhibition of bacterial growth at pH 6.5 incubated for 24 hrs by NCCLS protocol based method; type: functional
Lipopolysaccharide (LPS) [25] = assay: Displacement of BODIPY-TR-cadaverin from Pseudomonas aeruginosa ATCC 27316 Lipopolysaccharide at 1 to 64 uM at pH 6.5 incubated for 1 hr by fluorescence based analysis; settings: dose 1-64 µM
Escherichia coli [26] = assay: Antibacterial activity against Escherichia coli ATCC 25922 assessed as inhibition of bacterial growth at pH 6.5 incubated for 24 hrs by NCCLS protocol based method; type: functional
Pseudomonas aeruginosa [27] = assay: Antibacterial activity against Pseudomonas aeruginosa ATCC 27853 assessed as inhibition of bacterial growth at pH 7.4 incubated for 24 hrs by NCCLS protocol based method; type: functional
Lipopolysaccharide (LPS) [28] = assay: Displacement of BODIPY-TR-cadaverin from Pseudomonas aeruginosa ATCC 27316 Lipopolysaccharide at 1 to 64 uM at pH 7.4 incubated for 1 hr by fluorescence based analysis; settings: dose 1-64 µM
Staphylococcus aureus [29] = assay: Antibacterial activity against Staphylococcus aureus ATCC 29213 assessed as inhibition of bacterial growth at pH 7.4 incubated for 24 hrs by NCCLS protocol based method; type: functional
Pseudomonas aeruginosa [30] = assay: Antibacterial activity against Pseudomonas aeruginosa ATCC 27853 assessed as inhibition of bacterial growth at pH 6.5 incubated for 24 hrs by NCCLS protocol based method; type: functional
[31] = tested on: Staphylococcus epidermidis; assay: Antibacterial activity against Staphylococcus epidermidis ATCC 12228 assessed as inhibition of bacterial growth at pH 7.4 incubated for 24 hrs by NCCLS protocol based method; type: functional

Compound: CC[C@H](C)[C@H](NC(=O)CN)C(=O)NCC(=O)N[C@@H](C)C(=O)N[C@H](C(=O)N[C@@H](CC(C)C)C(=O)N[C@@H](CCCCN)C(=O)N[C@H](C(=O)N[C@@H](CC(C)C)C(=O)N[C@H](C(=O)N[C@H](C(=O)NCC(=O)N[C@@H](CC(C)C)C(=O)N1CCC[C@H]1C(=O)N[C@@H](C)C(=O)N[C@@H](CC(C)C)C(=O)N[C@H](C(=O)N[C@@H](CO)C(=O)N[C@@H](Cc1c[nH]c2ccccc12)C(=O)N[C@H](C(=O)N[C@@H](CCCCN)C(=O)N[C@@H](CCCNC(=N)N)C(=O)N[C@@H](CCCCN)C(=O)N[C@@H](CCCNC(=N)N)C(=O)N[C@@H](CCC(N)=O)C(=O)N[C@@H](CCC(N)=O)C(N)=O)[C@@H](C)CC)[C@@H](C)CC)[C@@H](C)O)[C@@H](C)O)C(C)C)C(C)C [MELITTIN]
- Activity (Pseudomonas aeruginosa [1]): inactive
- Activity (Pseudomonas aeruginosa [2]): inactive
- IC50 at 24 h [3]: 1300 nM
- MHC10 [4]: 4 µM
- Activity (Pseudomonas aeruginosa [5]): inactive
- IC50 at 24 h [6]: 1940 nM
- Activity (Pseudomonas aeruginosa [7]): inactive
- Activity (Pseudomonas aeruginosa [8]): inactive
- selectivity ratio [9]: 0.5
- MHC10 [10]: 2 µM

Compound: H-FLFKLIPKVIKGLVKAIRK-NH2
- MIC (Salmonella typhimurium [11]): 2 µM
- MIC (Staphylococcus aureus [12]): 2 µM
- IC50 at 24 h [3]: 1910 nM
- MIC (Staphylococcus aureus [13]): 2 µM
- MIC (Salmonella typhimurium [14]): 4 µM
- MIC [15]: 2 µM
- MIC (Staphylococcus aureus [16]): 2 µM
- MIC (Salmonella typhimurium [17]): 2 µM
- MIC (Escherichia coli [18]): 2 µM
- MIC (Staphylococcus aureus [19]): 2 µM
- Activity (Cell membrane [20]): inactive
- MHC10 [4]: 16 µM
- Activity (Cell membrane [21]): Tde
- IC50 at 24 h [6]: 2450 nM
- MIC (Salmonella typhimurium [22]): 2 µM
- Activity (Cell membrane [23]): Dose-Dependent Effect
- MIC (Staphylococcus aureus [24]): 2 µM
- Activity (Lipopolysaccharide (LPS) [25]): Active
- MIC (Escherichia coli [26]): 1 µM
- MIC (Pseudomonas aeruginosa [27]): 4 µM
- Activity (Lipopolysaccharide (LPS) [28]): Active
- MIC (Staphylococcus aureus [29]): 2 µM
- selectivity ratio [9]: 0.13
- MIC (Pseudomonas aeruginosa [30]): 1 µM
- MIC [31]: 2 µM
- MHC10 [10]: 2 µM
